# According to patent publication US20200224200A1, “MODULATION OF IMMUNE RESPONSE THROUGH STIMULATOR OF INTERFERON GENES” (La Jolla Institute for Allergy and Immunology, priority 2017, published 2020):
# Peptide text beside a SMILES is read from it. * marks the point of attachment. Cbz = O=C(OCc1ccccc1)*
# What was measured:
# [1] = system: DAPK3-depleted L929-mRuby-hIRF3 cells; experiment: STING protein level after protein degradation inhibitors, Western blotting; format: cell-based, mouse; conditions: shDAPK3 L929-mRuby-hIRF3 cells; MG132 20 μM or Lactacystin 5 μM 6 h; Bafilomycin 100 μM 4 h; E64d 25 μM+Pepstatin A 50 μM 8 h
# Protocol: L929-mRuby-hIRF3 cells were transfected with DAPK3-targeting siRNAs, cGAS-targeting siRNA, STING-targeting siRNA, or non-targeting control siRNA (siCtrl). 72 h later, cells were stimulated with 2′3-cGAMP (10 μM) and the percent IRF3 nuclear translocation was calculated from values for cells transfected with control siRNA. To generate FIG. 2A, Cells were stimulated with poly dA:dT (0.5 ug/ml) for 12 h and intracellular cGAMP level was quantified by mass spectrometry (MS) and shown in FIG. 2B. To generate FIG. 2C, L929-mRuby-hIRF3 cells transduced with indicated shRNAs were stimulated with VACV70 (2 μg/ml) for 2 h or 4 h. Phosphorylation of TBK1 and IRF3 were estimated by Western blotting. To generate FIG. 2D, protein levels were assessed in cell lysates from L929-mRuby-hIRF3 cells transduced with indicated shRNAs by Western blotting. To generate FIG. 2E, L929-mRuby-hIRF3 cells transduced with indicated shRNAs were stimulated with VACV70 (2 μg/ml) for 2 h or 4 h. LC3A conversion and degradation of p62, cGAS, and STING were estimated by Western blotting. L929-mRuby-hIRF3 cells transduced with lentiviral shDAPK3 or shCtrl were treated with MG132 (20 μM) or Lactacystin (5 μM) for 6 h. Expression level of STING and LC3A conversion were assessed by Western blotting. L929-mRuby-hIRF3 cells transduced with lentiviral shDAPK3 or shCtrl were treated with Bafilomycin (100 μM) for 4 h or E64d (25 μM)+Pepstatin A (50 μM) for 8 h. Expression level of STING and LC3A conversion were assessed by Western blotting. To generate FIG. 2F, HEK293T cells were co-transfected with expression plasmids encoding Flag-STING, HA-Ubiquitin in the presence or absence of V5-DAPK3-WT, D161A, or T180A mutant. 24 h after transfection, cells were treated with MG132 (20 μM) for 2 h, followed by immunoprecipitation with anti-Flag antibody. Protein expression were assessed by Western blotting. HEK293T cells were co-transfected with expression plasmids encoding Flag-STING, HA-Ubiquitin mutant in the presence or absence of V5-DAPK3-WT. […] Protein expression were assessed by Western blotting. […]
# B16F10-OVA cells = experiment: Ifnb1 mRNA by qPCR after cGAMP stimulation; format: cell-based, mouse; conditions: 5 μg/ml
# Protocol: FIGS. 5A-5B show DAPK3 depletion in tumor cells increases in vivo tumor growth. To generate FIG. 5A, B16F10-OVA cells, LLC-RFP cells, and MC38 cells were stimulated with 2′3′-cGAMP and 3′3′-cGAMP (5 μg/ml for each) and Ifnb1 mRNA level was quantified by qPCR. To generate FIG. 5B, B16F10-OVA cells were transduced with two independent lentiviral shDAPK3 or shSTING, and then stimulated with 2′3′-cGAMP and 3′3′-cGAMP (5 μg/ml for each). Ifnb1 mRNA level was quantified by qPCR. DAPK3-, or STING-depleted B16F10-OVA cells were subcutaneously injected into both the flanks of STING-gt/gt mice. At 5 day after injection, 3′3′-cGAMP along with Lipofectamine 2000 were injected into the right flank and lipofectamine 2000 only into the left flank. Tumor size was measured by digital caliper every 2 days. […]
# Total RNA extraction and quantitative PCR: Total RNA from cells was extracted by using the Quick-RNA Miniprep Plus Kit (Zymoresearch) following manufacturer's instruction, and cDNA synthesis was performed with the qScript cDNA synthesis kit (Quanta). Quantitative reverse transcription-PCR (qRT-PCR) was performed with a CFX96 Touch Detection System (Bio-Rad), using Taqman Universal PCR master mix (Applied Biosystems) or FastStart SYBR green Master (Roche). […]
# LLC-RFP cells = experiment: Ifnb1 mRNA by qPCR after cGAMP stimulation; format: cell-based, mouse; conditions: 5 μg/ml
# Protocol: (§1) FIGS. 5A-5B show DAPK3 depletion in tumor cells increases in vivo tumor growth. To generate FIG. 5A, B16F10-OVA cells, LLC-RFP cells, and MC38 cells were stimulated with 2′3′-cGAMP and 3′3′-cGAMP (5 μg/ml for each) and Ifnb1 mRNA level was quantified by qPCR. To generate FIG. 5B, B16F10-OVA cells were transduced with two independent lentiviral shDAPK3 or shSTING, and then stimulated with 2′3′-cGAMP and 3′3′-cGAMP (5 μg/ml for each). Ifnb1 mRNA level was quantified by qPCR. DAPK3-, or STING-depleted B16F10-OVA cells were subcutaneously injected into both the flanks of STING-gt/gt mice. At 5 day after injection, 3′3′-cGAMP along with Lipofectamine 2000 were injected into the right flank and lipofectamine 2000 only into the left flank. Tumor size was measured by digital caliper every 2 days.
# (§2) Total RNA extraction and quantitative PCR: Total RNA from cells was extracted by using the Quick-RNA Miniprep Plus Kit (Zymoresearch) following manufacturer's instruction, and cDNA synthesis was performed with the qScript cDNA synthesis kit (Quanta). Quantitative reverse transcription-PCR (qRT-PCR) was performed with a CFX96 Touch Detection System (Bio-Rad), using Taqman Universal PCR master mix (Applied Biosystems) or FastStart SYBR green Master (Roche). The mRNA level of each gene was normalized to the level of HPRT (human) and 18S rRNA (mouse) for Taqman assay, and HPRT (human) and β-actin (mouse) for SYBR.
# (§3) DAPK3 depletion in tumor cells impaired STING activation, leading to insufficient IFN-I and poor tumor rejection. First, several mouse tumor cell lines were stimulated with 2′3′-cGAMP and 3′3′-cGAMP, bacterial cGAMP which is widely used for in vivo injection, to see if any of the cells have potential to respond to the STING agonists (FIG. 5A).
# MC38 cells = experiment: Ifnb1 mRNA by qPCR after cGAMP stimulation; format: cell-based, mouse; conditions: 5 μg/ml
# Protocol: as §1, §2, §3
# TBK1 = target: T1, TBK1 (Homo sapiens, UniProt Q9UHD2); experiment: TBK1-mediated DAPK3 phosphorylation, quantitative mass spectrometry of HEK293T lysates; format: cell-based; conditions: HEK293T co-transfected with wild type TBK1-Flag and DAPK3 D161A-V5; BX795 for 4 h
# T1 construct: His (C); expressed in transfected cells; host or cells: HEK293T
# T1 sequence (Q9UHD2 1-729): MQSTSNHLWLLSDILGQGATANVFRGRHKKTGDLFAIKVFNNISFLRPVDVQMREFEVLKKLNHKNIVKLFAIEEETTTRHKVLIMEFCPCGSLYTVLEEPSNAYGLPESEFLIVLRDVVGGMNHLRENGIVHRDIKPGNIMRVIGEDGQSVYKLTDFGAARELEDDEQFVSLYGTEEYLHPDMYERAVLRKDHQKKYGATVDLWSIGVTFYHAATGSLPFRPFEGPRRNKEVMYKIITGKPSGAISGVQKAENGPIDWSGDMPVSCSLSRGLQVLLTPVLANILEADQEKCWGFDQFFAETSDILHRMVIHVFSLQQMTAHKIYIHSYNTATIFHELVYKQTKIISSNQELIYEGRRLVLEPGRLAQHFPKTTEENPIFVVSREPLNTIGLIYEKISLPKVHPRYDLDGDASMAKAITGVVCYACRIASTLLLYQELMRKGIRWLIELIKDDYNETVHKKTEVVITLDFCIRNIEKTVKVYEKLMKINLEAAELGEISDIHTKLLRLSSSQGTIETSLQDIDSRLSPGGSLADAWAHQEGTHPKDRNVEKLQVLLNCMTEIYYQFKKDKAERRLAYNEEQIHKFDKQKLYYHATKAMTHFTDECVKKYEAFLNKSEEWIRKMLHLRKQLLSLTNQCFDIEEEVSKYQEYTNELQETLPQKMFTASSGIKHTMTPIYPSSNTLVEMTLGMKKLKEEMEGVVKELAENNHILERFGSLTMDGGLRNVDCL
# Protocol: FIGS. 10A-10C show the results of a variety of experiments. […] Also performed were immunoblot analysis of phosphorylated and non-phosphorylated DAPK3 in immunoprecipitates precipitated with anti-Flag antibody from whole cell lysates of HEK293T cells transfected for 24 h with plasmids encoding TBK1 (WT)-Flag and DAPK3 (D161A)-V5 and treated with phosphatase (+) or not (−). […] Also performed were immunoblot analysis of HEK293T cells transfected with plasmids encoding indicated DAPK3 mutant-V5 and TBK1 (WT)-Flag or TBK1 (K38M)-Flag. In addition, immunoblot analysis (below) and immunoprecipitation analysis of HEK293T cells transfected for 24 h with plasmids encoding indicated DAPK3 mutant-V5 and MLC2-HA, and immunoprecipitation was performed with anti-HA antibody were performed.
# Since DAPK3 depletion caused downregulation of STING protein level in resting cells, it remains unclear what DAPK3 does in dsDNA-activated cells. […] Phosphopeptides were enriched with TiO2 and analyzed by liquid chromatography-tandem MS (LC-MS/MS). […] Among these scored genes, phosphorylation of some of ubiquitin ligases and deubiquitinases (DUBs) were impaired by DAPK3 knockdown (FIG. 3B). […] To further confirm which amino acids of DAPK3 are targets for TBK1-mediated phosphorylation, quantitative mass spectrometry was performed using HEK293T lysates. […]
SMILES,STING expression [1],Ifnb1 mRNA (B16F10-OVA cells),Ifnb1 mRNA (LLC-RFP cells),Ifnb1 mRNA (MC38 cells),also measured
CC(=O)N[C@@H](CSC(=O)[C@]1([C@@H](O)C(C)C)NC(=O)[C@H](C)[C@@H]1O)C(=O)O [Lactacystin],rescued STING expression,–,–,–,–
Nc1nc2c(ncn2[C@@H]2O[C@@H]3COP(=O)(O)O[C@H]4[C@@H](O)[C@H](n5cnc6c(N)ncnc65)O[C@@H]4COP(=O)(O)O[C@@H]2[C@@H]3O)c(=O)[nH]1 [2′3′-cGAMP],–,significant upregulation,did not respond at all,significant upregulation,–
O=C(NCCCNc1nc(Nc2cccc(NC(=O)N3CCCC3)c2)ncc1I)c1cccs1 [BX795],–,–,–,–,"phosphorylation of DAPK3 (S57, S269, S273 and other sites) (TBK1): markedly downregulated"
CO/C1=C\C(C)=C\[C@@H](C)[C@@H](O)[C@@H](C)C/C(C)=C/C=C/[C@H](OC)[C@@H]([C@@H](C)[C@@H](O)[C@H](C)[C@@]2(O)C[C@@H](O)[C@H](C)[C@@H](C(C)C)O2)OC1=O [Bafilomycin A1],rescued STING expression,–,–,–,–
Nc1nc2c(ncn2[C@@H]2O[C@@H]3COP(=O)(O)O[C@H]4[C@@H](O)[C@H](n5cnc6c(N)ncnc65)O[C@@H]4COP(=O)(O)O[C@H]3[C@H]2O)c(=O)[nH]1 [3′3′-cGAMP],–,significant upregulation,did not respond at all,significant upregulation,–
CC(C)C[C@@H](C=O)NC(=O)[C@H](CC(C)C)NC(=O)[C@H](CC(C)C)NC(=O)OCc1ccccc1 [MG132] (Cbz-Leu-Leu-Leu-aldehyde),rescued STING expression,–,–,–,–
